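Cultured in 96-well plates, cells were exposed to test compound for 48 hours across five concentrations. At the GI50, growth is halved.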 The source made the active and inactive calls. No stated cut-off is given here; in the data, active = GI50 up to about 1.1 µM and inactive = higher.
Tests used:
Assay in all cases: growth of human tumour cells (NCI), 48 h
786-0 = system: 786-0
A549 = system: A549
CAKI-1 = system: CAKI-1
CCRF-CEM = system: CCRF-CEM
COLO 205 = system: COLO 205
DU-145 = system: DU-145
EKVX = system: EKVX
HCC 2998 = system: HCC 2998
HCT-15 = system: HCT-15
HL-60 = system: HL-60
HOP-62 = system: HOP-62
HT-29 = system: HT-29
IGROV-1 = system: IGROV-1
K562 = system: K562
KM12 = system: KM12
LOX IMVI = system: LOX IMVI
M14 = system: M14
MCF7 = system: MCF7
MDA-MB-231 = system: MDA-MB-231
MDA-N = system: MDA-N
Malme-3M = system: Malme-3M
NCI-H23 = system: NCI-H23
OVCAR-8 = system: OVCAR-8
PC-3 = system: PC-3
RPMI-8226 = system: RPMI-8226
RXF 393 = system: RXF 393
SF-268 = system: SF-268
SF-295 = system: SF-295
SK-MEL-28 = system: SK-MEL-28
SK-MEL-5 = system: SK-MEL-5
SK-OV-3 = system: SK-OV-3
SN12C = system: SN12C
SNB-75 = system: SNB-75
SR = system: SR
SW-620 = system: SW-620
T47D = system: T47D
TK-10 = system: TK-10
UACC-257 = system: UACC-257
UACC-62 = system: UACC-62
A498 = system: A498
ACHN = system: ACHN
HCT-116 = system: HCT-116
HOP-92 = system: HOP-92
Hs-578T = system: Hs-578T
MDA-MB-435 = system: MDA-MB-435
MOLT-4 = system: MOLT-4
NCI-H226 = system: NCI-H226
NCI-H460 = system: NCI-H460
NCI/ADR-RES = system: NCI/ADR-RES
OVCAR-4 = system: OVCAR-4
OVCAR-5 = system: OVCAR-5
SF-539 = system: SF-539
SNB-19 = system: SNB-19
U-251 = system: U-251
UO-31 = system: UO-31

**Q.** For `COc1ccc(C(=O)/C=C/c2ccc(OCC(=N)N)cc2)cc1OC`, which GI50 (786-0) is on record?
**A.** 5.04 µM (inactive)

**Q.** And the GI50 (A549)?
**A.** 5.97 µM (inactive)

**Q.** What about the GI50 (CAKI-1) of the same molecule?
**A.** 5.05 µM (inactive)

**Q.** What about the GI50 (CCRF-CEM) of the same molecule?
**A.** 2.61 µM (inactive)

**Q.** And the GI50 (COLO 205)?
**A.** 3.34 µM (inactive)

**Q.** What about the GI50 (DU-145) of the same molecule?
**A.** > 10 µM (inactive)

**Q.** And the GI50 (EKVX)?
**A.** 7.36 µM (inactive)

**Q.** And the GI50 (HCC 2998)?
**A.** 6.4 µM (inactive)

**Q.** What about the GI50 (HCT-15) of the same molecule?
**A.** > 10 µM

**Q.** And the GI50 (HL-60)?
**A.** 1.95 µM (inactive)

**Q.** What about the GI50 (HOP-62) of the same molecule?
**A.** 5.75 µM (inactive)

**Q.** And the GI50 (HT-29)?
**A.** 3.1 µM (inactive)

**Q.** What about the GI50 (IGROV-1) of the same molecule?
**A.** > 10 µM (inactive)

**Q.** What about the GI50 (K562) of the same molecule?
**A.** 2.37 µM (inactive)

**Q.** What about the GI50 (KM12) of the same molecule?
**A.** 2.64 µM (inactive)

**Q.** What about the GI50 (LOX IMVI) of the same molecule?
**A.** 2.52 µM (inactive)

**Q.** What about the GI50 (M14) of the same molecule?
**A.** 5.87 µM (inactive)

**Q.** And the GI50 (MCF7)?
**A.** 3.24 µM (inactive)

**Q.** And the GI50 (MDA-MB-231)?
**A.** > 10 µM (inactive)

**Q.** What about the GI50 (MDA-N) of the same molecule?
**A.** 3.6 µM (inactive)

**Q.** And the GI50 (Malme-3M)?
**A.** > 10 µM (inactive)

**Q.** And the GI50 (NCI-H23)?
**A.** 3.33 µM (inactive)

**Q.** And the GI50 (OVCAR-8)?
**A.** 3.62 µM (inactive)

**Q.** And the GI50 (PC-3)?
**A.** 3.84 µM (inactive)

**Q.** And the GI50 (RPMI-8226)?
**A.** 2.34 µM (inactive)

**Q.** What about the GI50 (RXF 393) of the same molecule?
**A.** 4.63 µM (inactive)

**Q.** And the GI50 (SF-268)?
**A.** 3.61 µM (inactive)

**Q.** What about the GI50 (SF-295) of the same molecule?
**A.** > 10 µM (inactive)

**Q.** And the GI50 (SK-MEL-28)?
**A.** 8.73 µM (inactive)

**Q.** And the GI50 (SK-MEL-5)?
**A.** 7.93 µM (inactive)

**Q.** What about the GI50 (SK-OV-3) of the same molecule?
**A.** 4.01 µM (inactive)

**Q.** And the GI50 (SN12C)?
**A.** > 10 µM (inactive)

**Q.** What about the GI50 (SNB-75) of the same molecule?
**A.** 4.53 µM (inactive)

**Q.** What about the GI50 (SR) of the same molecule?
**A.** 1.64 µM (inactive)

**Q.** What about the GI50 (SW-620) of the same molecule?
**A.** 3.84 µM (inactive)

**Q.** And the GI50 (T47D)?
**A.** 3.86 µM (inactive)

**Q.** And the GI50 (TK-10)?
**A.** > 10 µM (inactive)

**Q.** And the GI50 (UACC-257)?
**A.** 6.79 µM (inactive)

**Q.** And the GI50 (UACC-62)?
**A.** > 10 µM (inactive)

**Q.** `O=C(CCC(=O)CC(O)(C(F)(F)F)C(F)(F)F)CC(O)(C(F)(F)F)C(F)(F)F` was tested. Which GI50 (786-0) did it give?
**A.** 46.1 µM (inactive)

**Q.** And the GI50 (A498)?
**A.** 0.151 µM (active)

**Q.** And the GI50 (A549)?
**A.** 46.8 µM (inactive)

**Q.** What about the GI50 (ACHN) of the same molecule?
**A.** 33.7 µM (inactive)

**Q.** And the GI50 (CCRF-CEM)?
**A.** 42.1 µM (inactive)

**Q.** And the GI50 (COLO 205)?
**A.** 29.2 µM (inactive)

**Q.** What about the GI50 (DU-145) of the same molecule?
**A.** 53.1 µM (inactive)

**Q.** And the GI50 (EKVX)?
**A.** 35 µM (inactive)

**Q.** And the GI50 (HCC 2998)?
**A.** 58.1 µM (inactive)

**Q.** And the GI50 (HCT-116)?
**A.** 46.9 µM (inactive)

**Q.** And the GI50 (HCT-15)?
**A.** 35 µM

**Q.** And the GI50 (HL-60)?
**A.** 33.7 µM (inactive)

**Q.** And the GI50 (HOP-62)?
**A.** 52.5 µM (inactive)

**Q.** What about the GI50 (HOP-92) of the same molecule?
**A.** 20.7 µM (inactive)

**Q.** And the GI50 (HT-29)?
**A.** 29.7 µM (inactive)

**Q.** And the GI50 (Hs-578T)?
**A.** 29.4 µM (inactive)

**Q.** What about the GI50 (IGROV-1) of the same molecule?
**A.** 29.7 µM (inactive)

**Q.** And the GI50 (K562)?
**A.** 33.4 µM (inactive)

**Q.** What about the GI50 (KM12) of the same molecule?
**A.** 26.4 µM (inactive)

**Q.** What about the GI50 (M14) of the same molecule?
**A.** 41.2 µM (inactive)

**Q.** What about the GI50 (MCF7) of the same molecule?
**A.** 37.8 µM (inactive)

**Q.** And the GI50 (MDA-MB-231)?
**A.** 29.4 µM (inactive)

**Q.** And the GI50 (MDA-MB-435)?
**A.** 47.9 µM (inactive)

**Q.** What about the GI50 (MOLT-4) of the same molecule?
**A.** 41.3 µM (inactive)

**Q.** What about the GI50 (Malme-3M) of the same molecule?
**A.** 42.1 µM (inactive)

**Q.** What about the GI50 (NCI-H226) of the same molecule?
**A.** 18.8 µM (inactive)

**Q.** And the GI50 (NCI-H23)?
**A.** 30.8 µM (inactive)

**Q.** And the GI50 (NCI-H460)?
**A.** > 10 µM (inactive)

**Q.** What about the GI50 (NCI/ADR-RES) of the same molecule?
**A.** 61.7 µM (inactive)

**Q.** And the GI50 (OVCAR-4)?
**A.** 33 µM (inactive)

**Q.** And the GI50 (OVCAR-5)?
**A.** > 100 µM (inactive)

**Q.** And the GI50 (OVCAR-8)?
**A.** 42.4 µM (inactive)

**Q.** And the GI50 (RPMI-8226)?
**A.** 26.7 µM (inactive)

**Q.** What about the GI50 (RXF 393) of the same molecule?
**A.** > 100 µM (inactive)

**Q.** And the GI50 (SF-268)?
**A.** 71.6 µM (inactive)

**Q.** What about the GI50 (SF-295) of the same molecule?
**A.** 32.1 µM (inactive)

**Q.** And the GI50 (SF-539)?
**A.** 67.6 µM (inactive)

**Q.** And the GI50 (SK-MEL-28)?
**A.** > 100 µM (inactive)

**Q.** What about the GI50 (SK-MEL-5) of the same molecule?
**A.** 55.7 µM (inactive)

**Q.** What about the GI50 (SK-OV-3) of the same molecule?
**A.** > 100 µM (inactive)

**Q.** And the GI50 (SN12C)?
**A.** 42.6 µM (inactive)

**Q.** What about the GI50 (SNB-19) of the same molecule?
**A.** 24 µM (inactive)

**Q.** And the GI50 (SNB-75)?
**A.** 82.8 µM (inactive)

**Q.** What about the GI50 (SR) of the same molecule?
**A.** 47.9 µM (inactive)

**Q.** And the GI50 (SW-620)?
**A.** 63.5 µM (inactive)

**Q.** What about the GI50 (T47D) of the same molecule?
**A.** 29.2 µM (inactive)

**Q.** What about the GI50 (TK-10) of the same molecule?
**A.** 56.9 µM (inactive)

**Q.** What about the GI50 (U-251) of the same molecule?
**A.** 65 µM (inactive)

**Q.** And the GI50 (UACC-257)?
**A.** 34.4 µM (inactive)

**Q.** And the GI50 (UACC-62)?
**A.** 31.7 µM (inactive)

**Q.** And the GI50 (UO-31)?
**A.** 23.5 µM (inactive)

— ChEMBL document CHEMBL1201862, “PubChem BioAssay data set” (2004)
